Measurements from US20240376097A1, “BCL-2 Inhibitor” (BeiGene Ltd., priority 2020, published 2024).
Read-outs that look alike come from different tables or passages of the source.

What was measured:
Assay type in all cases: binding
[1] = molecular target: Recombinant human Bcl-2 protein (Homo sapiens (Human), UniProt P10415); test: Bcl-2 TR-FRET Assay
Description: Biological Example: Bcl-2 TR-FRET Assay
Compounds disclosed herein were tested for blocking of Bcl-2 protein with its ligand in an assay based on Time-Resolved Fluorescence Resonance Energy Transfer (TR-FRET) methodology. Recombinant human 0.05 nM Bcl-2 protein was pre-incubated with a serial dilution of compounds disclosed herein (top final concentration is 1 uM or 0.1 uM or 0.02 uM or 0.01 uM, 10 points) at room temperature for 0.5 hour in an assay buffer containing 20 mM potassium phosphate buffer, pH 7.5, 50 mM NaCl. 1 mM EDTA, 0.05% Tween-20, 0.01% BSA. Then the FITC labeled Bak peptide Ac-GQVGRQLAIIGDK(FITC)INR-amide (0.5 nM) and MAb Anti 6His Tb cryptate Gold were added to plate and further incubated at room temperature for 1 hour. The TR-FRET signals (337 nm-520 nm-490 nm) were read on BMG PHERAstar FSX instrument. The inhibition percentage of Bcl-2 interaction with its ligand in presence of increasing concentrations of compounds was calculated based on the TR-FRET signals. The IC50 for each compound was derived from fitting the data to the four-parameter logistic equation by Graphpad Prism software or Dotmatics.

[2] = tested on: recombinant human Bcl-2-G101V protein; test: Bcl-2-G101V TR-FRET Assay; conditions: for Ratio of Bcl-2 G101V/WT: ratio of biochemical IC50 Bcl-2 G101V / Bcl-2 WT
Description: (§1) Biological Example: Bcl-2-G101V TR-FRET Assay
(§2) […]. The TR-FRET signals (ex337 nm, em490 nm/520 nm) were read on BMG PHERAstar FSX instrument. The inhibition percentage of Bcl-2-G101V interaction with its ligand in presence of increasing concentrations of compounds was calculated based on the ratio of fluorescence at 490 nm to that at 520 nm. The IC50 for each compound was derived from fitting the data to the four-parameter logistic equation by Graphpad Prism software or Dotmatics.

[3] = molecular target: recombinant human Bcl-2-G101V protein (Homo sapiens (Human), UniProt P10415, G101V); test: Bcl-2-G101V TR-FRET Assay; conditions: Bcl-2 G101V mutant, TR-FRET; read-out: Biochemical assay (IC50, nM) Bcl-2 G101V
Description: as §1, §2

[4] = molecular target: recombinant human Bcl-2 D103Y protein (Homo sapiens (Human), UniProt P10415, D103Y); test: Bcl-2-D103Y Biochemical Assay (TR-FRET); conditions: for IC50: TR-FRET, FITC labeled Bak peptide; for Ratio of Bcl-2 D103Y/Bcl-2 WT: ratio of IC50
Description: Biological Example: Bcl-2-D103Y Biochemical Assay
as §2, with “Bcl-2 D103Y” for “Bcl-2-G101V”, “by” for “by Graphpad Prism software or”

[5] = Bcl-2 wild type, TR-FRET, read-out: Biochemical assay (IC50, nM) Bcl-2 WT
[6] = wild type Bcl-2, unit inferred, read-out: Bcl-2 WT

SMILES	IC50 [1, 6] [nM]	IC50 [4] [nM]	Ratio of Bcl-2 D103Y/Bcl-2 WT [4]	also measured
CC(C)c1ccccc1[C@H]1CN(C(C)C)CCN1C1CC2(CCN(c3ccc(C(=O)NS(=O)(=O)c4ccc(NC[C@H]5CC[C@](C)(O)CC5)c([N+](=O)[O-])c4)c(Oc4cnc5[nH]ccc5c4)c3)CC2)C1 (single isomer, unassigned) [Example 3b, 2-((1H-pyrrolo[2,3-b]pyridin-5-yl)oxy)-N-((4-((((1r,4r)-4-hydroxy-4-methylcyclohexyl)methyl)amino)-3-nitrophenyl)sulfonyl)-4-(2-((R or S)-4-isopropyl-2-(2-isopropylphenyl)piperazin-1-yl)-7-azaspiro[3.5]nonan-7-yl)benzamide]	–	–	–	IC50 [1, 5]: 0.0083 nM; Ratio of Bcl-2 G101V/WT [2]: 16.9; IC50 [3]: 0.14 nM
CC(C)c1ccccc1C1CN(C2COC2)CCN1C1CC2(CCN(c3ccc(C(=O)NS(=O)(=O)c4ccc(NC[C@H]5CC[C@](C)(O)CC5)c([N+](=O)[O-])c4)c(Oc4cnc5[nH]ccc5c4)c3)CC2)C1 (single isomer, unassigned) [Example 6a, 2-((1H-pyrrolo[2,3-b]pyridin-5-yl)oxy)-N-((4-((((1r,4r)-4-hydroxy-4-methylcyclohexyl)methyl)amino)-3-nitrophenyl)sulfonyl)-4-(2-((S or R)-2-(2-isopropylphenyl)-4-(oxetan-3-yl)piperazin-1-yl)-7-azaspiro[3.5]nonan-7-yl)benzamide]	0.0078	0.11	–	–
CC(C)c1ccccc1[C@H]1CN(C2COC2)CCN1C1CC2(CCN(c3ccc(C(=O)NS(=O)(=O)c4ccc(NC[C@H]5CC[C@](C)(O)CC5)c([N+](=O)[O-])c4)c(Oc4cnc5[nH]ccc5c4)c3)CC2)C1 (single isomer, unassigned) [Example 6a, 2-((1H-pyrrolo[2,3-b]pyridin-5-yl)oxy)-N-((4-((((1r,4r)-4-hydroxy-4-methylcyclohexyl)methyl)amino)-3-nitrophenyl)sulfonyl)-4-(2-((S or R)-2-(2-isopropylphenyl)-4-(oxetan-3-yl)piperazin-1-yl)-7-azaspiro[3.5]nonan-7-yl)benzamide]	–	–	13	–
CC(C)c1ccccc1[C@@H]1CN(Cc2cnn(C)c2)CCN1C1CC2(CCN(c3ccc(C(=O)NS(=O)(=O)c4ccc(NC[C@H]5CC[C@](C)(O)CC5)c([N+](=O)[O-])c4)c(Oc4cnc5[nH]ccc5c4)c3)CC2)C1 (single isomer, unassigned) [Example 22a, 2-((1H-pyrrolo[2,3-b]pyridin-5-yl)oxy)-N-((4-((((1r,4r)-4-hydroxy-4-methylcyclohexyl)methyl)amino)-3-nitrophenyl)sulfonyl)-4-(2-((R or S)-2-(2-isopropylphenyl)-4-((1-methyl-1H-pyrazol-4-yl)methyl)piperazin-1-yl)-7-azaspiro [3.5]nonan-7-yl)benzamide]	–	–	5.2	ratio of Bcl-2 D103Y/Bcl-2 wt, compared with F91b in WO2019210828 ([4]; comparison in words): significantly lower; Ratio of Bcl-2 G101V/WT [2]: 8.1
COc1ccc(CN2CCN(C3CC4(CCN(c5ccc(C(=O)NS(=O)(=O)c6ccc(NC[C@H]7CC[C@](C)(O)CC7)c([N+](=O)[O-])c6)c(Oc6cnc7[nH]cc(F)c7c6)c5)CC4)C3)[C@H](c3ccccc3C(C)C)C2)cc1 (single isomer, unassigned) [Example 95, 2-((3-fluoro-1H-pyrrolo[2,3-b]pyridin-5-yl)oxy)-N-((4-((((1r,4r)-4-hydroxy-4-methylcyclohexyl)methyl)amino)-3-nitrophenyl)sulfonyl)-4-(2-((R or S)-2-(2-isopropylphenyl)-4-(4-methoxybenzyl)piperazin-1-yl)-7-azaspiro[3.5]nonan-7-yl) benzamide]	–	–	–	IC50 [1, 5]: 0.23 nM; Ratio of Bcl-2 G101V/WT [2]: 1.7; IC50 [3]: 0.38 nM
CC(C)c1ccccc1C1CN(C(C)C)CCN1C1CC2(CCN(c3ccc(C(=O)NS(=O)(=O)c4ccc(NC[C@H]5CC[C@](C)(O)CC5)c([N+](=O)[O-])c4)c(Oc4cnc5[nH]ccc5c4)c3)CC2)C1 (stereo partly shown) [Example 3, 2-((1H-pyrrolo[2,3-b]pyridin-5-yl)oxy)-N-((4-((((1r,4r)-4-hydroxy-4-methylcyclohexyl)methyl)amino)-3-nitrophenyl)sulfonyl)-4-(2-(4-isopropyl-2-(2-isopropylphenyl)piperazin-1-yl)-7-azaspiro[3.5]nonan-7-yl)benzamide]	0.019	0.11	11	–
COc1ccc(C(=O)N2CCN(C3CC4(CCN(c5ccc(C(=O)NS(=O)(=O)c6ccc(NC[C@H]7CC[C@](C)(O)CC7)c([N+](=O)[O-])c6)c(Oc6cnc7[nH]ccc7c6)c5)CC4)C3)C(c3ccccc3C(C)C)C2)cc1 (stereo partly shown) [Example 61, 2-((1H-pyrrolo[2,3-b]pyridin-5-yl)oxy)-N-((4-((((1r,4r)-4-hydroxy-4-methylcyclohexyl)methyl)amino)-3-nitrophenyl)sulfonyl)-4-(2-(2-(2-isopropylphenyl)-4-(4-methoxybenzoyl)piperazin-1-yl)-7-azaspiro[3.5]nonan-7-yl) benzamide]	–	–	–	ratio of IC50 of Bcl-2 G101V/Bcl-2 wt, compared with Example F132b in WO2019210828 and ABT-199 (venetoclax) ([2]; comparison in words): much lower
CC(C)c1ccccc1C1CN(Cc2ccc3occc3c2)CCN1C1CC2(CCN(c3ccc(C(=O)NS(=O)(=O)c4ccc(NC[C@H]5CC[C@](C)(O)CC5)c([N+](=O)[O-])c4)c(Oc4cnc5[nH]ccc5c4)c3)CC2)C1 (stereo partly shown) [Example 96, 2-((1H-pyrrolo[2,3-b]pyridin-5-yl)oxy)-4-(2-(4-(benzofuran-5-ylmethyl)-2-(2-isopropylphenyl)piperazin-1-yl)-7-azaspiro[3.5]nonan-7-yl)-N-((4-((((1r,4r)-4-hydroxy-4-methylcyclohexyl)methyl)amino)-3-nitrophenyl)sulfonyl)benzamide]	0.041	0.23	5.6	–
COc1ccc(N(C)C2CCN(C3CC4(CCN(c5ccc(C(=O)NS(=O)(=O)c6ccc(NC[C@H]7CC[C@](C)(O)CC7)c([N+](=O)[O-])c6)c(Oc6cnc7[nH]ccc7c6)c5)CC4)C3)C(c3ccccc3C(C)C)C2)cc1 (stereo partly shown) [Example 150]	0.13	0.53	4.1	–
COc1ccc(CN2CCN(C3CC4(C3)CN(c3ccc(C(=O)NS(=O)(=O)c5ccc(NC[C@H]6CC[C@](C)(O)CC6)c([N+](=O)[O-])c5)c(Oc5cnc6[nH]cc(Cl)c6c5)c3)C4)[C@H](c3ccccc3C(C)C)C2)cc1 [Example 207, 2-((3-chloro-1H-pyrrolo[2,3-b]pyridin-5-yl)oxy)-N-((4-((((1r,4r)-4-hydroxy-4-methylcyclohexyl)methyl)amino)-3-nitrophenyl)sulfonyl)-4-(6-((R)-2-(2-isopropylphenyl)-4-(4-methoxybenzyl)piperazin-1-yl)-2-azaspiro[3.3]heptan-2-yl) benzamide]	0.2	0.22	1.1	–
COc1ccc(CN2CCN(C3CC4(CCN(c5ccc(C(=O)NS(=O)(=O)c6ccc(NCC7CCC(CO)O7)c([N+](=O)[O-])c6)c(Oc6cnc7[nH]ccc7c6)c5)CC4)C3)[C@H](c3ccccc3C(C)C)C2)cc1 (stereo partly drawn) [Example 220, 2-((1H-pyrrolo[2,3-b]pyridin-5-yl)oxy)-N-((4-(((5-(hydroxymethyl)tetrahydrofuran-2-yl)methyl)amino)-3-nitrophenyl)sulfonyl)-4-(2-((R)-2-(2-isopropylphenyl)-4-(4-methoxybenzyl)piperazin-1-yl)-7-azaspiro[3.5]nonan-7-yl) benzamide]	0.044	0.077	1.8	–
